Measured values as given in ChEMBL document CHEMBL5154734, “Novel potent benzimidazole-based microsomal prostaglandin E2 synthase-1 (mPGES-1) inhibitors derived from BRP-201 that also inhibit leukotriene C4 synthase” (Eur J Med Chem, 2022).
The source made the active and inactive calls. No cut-off for these calls is given here.

Tests used:
[1] = molecular target: T1, Leukotriene C4 synthase (Homo sapiens, UniProt Q16873); test: Inhibition of human recombinant LTC4S expressed in HEK293 cell microsomal fraction preincubated for 10 mins followed by LTA4-methyl ester addition and measured after 10 mins by UPLC-MS/MS analysis; type: microsomes, Microsome
T1 sequence (Q16873 whole entry): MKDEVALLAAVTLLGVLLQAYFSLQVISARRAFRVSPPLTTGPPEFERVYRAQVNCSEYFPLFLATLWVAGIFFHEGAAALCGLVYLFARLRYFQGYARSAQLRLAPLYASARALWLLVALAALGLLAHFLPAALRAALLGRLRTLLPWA

[2] = molecular target: T2, Polyunsaturated fatty acid 5-lipoxygenase (Homo sapiens, UniProt P09917); test: Inhibition of human recombinant 5-LOX expressed in Escherichia coli BL21 assessed as inhibition of […] 5-LO product LTB4 formation preincubated for 15 mins followed by arachidonic acid addition and measured after 10 mins by RP-HPLC analysis
T2 sequence (P09917 whole entry): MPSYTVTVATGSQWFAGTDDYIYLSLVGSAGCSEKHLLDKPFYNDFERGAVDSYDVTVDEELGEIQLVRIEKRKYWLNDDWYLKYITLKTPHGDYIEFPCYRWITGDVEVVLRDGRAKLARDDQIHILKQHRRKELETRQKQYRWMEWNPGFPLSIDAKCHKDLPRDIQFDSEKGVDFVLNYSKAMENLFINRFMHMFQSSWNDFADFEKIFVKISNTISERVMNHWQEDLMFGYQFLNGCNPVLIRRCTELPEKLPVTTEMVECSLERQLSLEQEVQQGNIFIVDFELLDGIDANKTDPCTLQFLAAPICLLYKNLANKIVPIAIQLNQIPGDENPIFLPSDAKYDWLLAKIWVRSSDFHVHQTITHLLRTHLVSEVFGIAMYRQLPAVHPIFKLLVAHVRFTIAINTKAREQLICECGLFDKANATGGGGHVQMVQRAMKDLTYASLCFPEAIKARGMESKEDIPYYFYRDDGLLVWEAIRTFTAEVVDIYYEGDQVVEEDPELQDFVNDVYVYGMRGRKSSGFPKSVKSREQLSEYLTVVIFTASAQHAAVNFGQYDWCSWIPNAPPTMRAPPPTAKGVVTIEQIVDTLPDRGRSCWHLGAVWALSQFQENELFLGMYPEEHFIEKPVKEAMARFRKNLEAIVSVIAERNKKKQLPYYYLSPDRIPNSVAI

[3] = molecular target: T3, Prostaglandin E synthase (Homo sapiens, UniProt O14684); test: Inhibition of mPGES-1 activity in human A549 microsomal preparation using PGH2 as substrate preincubated for 15 mins followed by substrate addition for 1 min by RP-HPLC analysis; type: microsomes, Microsome
T3 sequence (O14684 whole entry): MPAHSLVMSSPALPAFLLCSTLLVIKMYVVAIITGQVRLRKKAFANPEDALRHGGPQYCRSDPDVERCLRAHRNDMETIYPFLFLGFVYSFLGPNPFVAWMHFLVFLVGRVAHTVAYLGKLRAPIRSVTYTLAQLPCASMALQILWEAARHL

[4] = tested on: Neutrophil; test: Cytotoxicity against human neutrophils assessed as reduction in cell viability at 10 uM by LDH release assay; type: toxicity, cell-based
[5] = molecular target: T4, Polyunsaturated fatty acid 5-lipoxygenase (Homo sapiens) (UniProt P09917); test: Inhibition of 5-LOX in human neutrophils assessed as reduction in FLAP-dependent 5-LO product LTB4 formation at upto 10 uM preincubated for 10 mins followed by A23187 addition and measured after 10 mins by RP-HPLC and UV detection method; type: cell-based; details: Neutrophil
T4 sequence (whole entry): T2 sequence (P09917 whole entry)

[6] = molecular target: T1, Leukotriene C4 synthase; test: Inhibition of recombinant LTC4S (unknown origin) expressed in COS cells; type: cell-based
[7] = molecular target: T5, Prostaglandin E synthase (Homo sapiens) (UniProt O14684); test: Inhibition of mPGES-1 activity in IL-1beta human A549 microsomal preparation at 10 uM using PGH2 as substrate preincubated for 15 mins followed by substrate addition for 1 min by RP-HPLC analysis; type: microsomes; details: Microsome, time 16.0 min
T5 sequence (whole entry): T3 sequence (O14684 whole entry)

Row | IC50 [1] [µM] | IC50 [2] [µM] | IC50 [3] [µM] | inhibition [5] | Compound | Activity [4] | further results
1 | 0.4 | 2.62 | 0.09 | Active | CC(c1ccc(Oc2ccccc2)cc1)c1nc2cc(-c3n[nH]c(=S)o3)ccc2[nH]1 (configuration not stated) | Non-Toxic | 
2 |  |  | 2.5 |  | O=C(Nc1cccc(-c2n[nH]c(=S)o2)c1)c1ccc(OCc2ccccc2)cc1 |  | 
3 |  |  | 2.2 |  | O=C(Nc1cc(-c2n[nH]c(=S)o2)ccc1F)c1ccc(OCc2ccccc2)cc1 |  | 
4 |  |  | 1.06 |  | Cn1c(-c2ccc(OCc3ccccc3)cc2)nc2cc(-c3n[nH]c(=S)o3)ccc21 |  | 
5 |  |  |  |  | CC(C)c1ccc2c(c1)c(SC(C)(C)C)c(CC(C)(C)C(=O)O)n2Cc1ccc(Cl)cc1 |  | IC50 [6]: 3 µM
6 | 0.7 | 1.26 | 0.03 | Active | S=c1[nH]nc(-c2ccc3[nH]c(-c4ccc(OCc5ccccc5)cc4)nc3c2)o1 | Non-Toxic | inhibition [7]: Active
7 |  |  | 1.6 |  | S=c1[nH]nc(-c2ccc3[nH]c(Cc4ccc(OCc5ccccc5)cc4)nc3c2)o1 |  | 
8 | 2.8 | 3.71 | 0.03 | Active | S=c1[nH]nc(-c2ccc3[nH]c(-c4ccc(Oc5ccccc5)cc4)nc3c2)o1 | Non-Toxic | 
9 |  |  |  |  | COc1cc(-c2nc3cc(-c4n[nH]c(=S)o4)ccc3[nH]2)ccc1OCc1ccccc1 |  | inhibition [7]: Active
